Paper doi:10.1101/2025.02.02.636098v1 (biorxiv, 2025)

Experiments:
[1] = target: T1, mFFA4 (mouse FFA4) (Mus musculus, UniProt Q7TMA4); test: bystander BRET arrestin-3 recruitment, HEK293T; type: cell-based
T1 sequence (Q7TMA4 1-361): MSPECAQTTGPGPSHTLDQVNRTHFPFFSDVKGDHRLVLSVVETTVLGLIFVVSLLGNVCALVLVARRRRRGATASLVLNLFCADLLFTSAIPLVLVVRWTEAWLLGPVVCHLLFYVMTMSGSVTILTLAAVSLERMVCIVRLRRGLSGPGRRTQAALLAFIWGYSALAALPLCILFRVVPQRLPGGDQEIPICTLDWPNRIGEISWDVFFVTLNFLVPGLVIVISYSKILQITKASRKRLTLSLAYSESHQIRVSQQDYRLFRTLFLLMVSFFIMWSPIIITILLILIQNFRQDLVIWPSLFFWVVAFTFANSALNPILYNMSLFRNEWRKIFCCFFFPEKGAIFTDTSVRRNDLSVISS

[2] = target: T1, mFFA4 (mouse FFA4); test: Ca2+ mobilisation, Fura-2, Flp-In T-REx […]; type: cell-based

Compound | IC50 [1] | EC50 [2]
Cc1ccc(S(=O)(=O)NC2c3ccccc3Oc3ccccc32)cc1 [AH7614, 4-Methyl-N-9H-xanthen-9-yl-benzenesulfonamide] | 0.2 µM | 
CC/C=C\C/C=C\C/C=C\CCCCCCCC(=O)O [aLA] |  | 10 µM
